Measured values from patent publication US12485122B2, “Combination of palbociclib and adagrasib for lung cancer” (Mirati Therapeutics, Inc., priority 2018, dated 2025).

How the values were obtained:
Assay type in all cases: in vivo, nude/nude mice
SW1573 cells = assay: SW1573 tumor bearing mice, single agents and combination; settings: for tumor growth inhibition: Day 28, single agent, Compound 478 100 mg/kg or palbociclib 130 mg/kg p.o. daily; for Average Tumor Volume: Compound 478 100 mg/kg, palbociclib 130 mg/kg, 7 mice averaged
Description: (§1) Immunocompromised nude/nude mice were inoculated in the right hind flank with cells or patient derived tumor samples harboring a KRas G12C mutation. When tumor volumes reached between 200-400 mm^3 in size, the mice were divided into four groups of 5-12 mice each. The first group was administered vehicle only. […] The fourth group was administered the single agent dose of the KRas G12C inhibitor in combination with the single agent dose of the CDK 4/6 inhibitor. […] Tumor volumes were measured using a caliper every two-three days and tumor volumes are calculated by the formula: […].
For example, 28 nude/nude mice were inoculated in the right hind limb with 5×10^6 SW1573 cells.

H2122 cells = assay: H2122 tumor bearing mice, single agents and combination; settings: for tumor growth inhibition: Day 23, single agent, Compound 478 100 mg/kg or palbociclib 130 mg/kg p.o. daily; for Average Tumor Volume: Compound 478 100 mg/kg, palbociclib 130 mg/kg, 5 mice averaged
Description: as §1
Similarly, 20 nude/nude mice were inoculated in the right hind limb with 5×10^6 H2122 cells.

LU6405 cells = assay: LU6405 tumor bearing mice, single agents and combination; settings: for Average Tumor Volume: Compound 478 100 mg/kg, palbociclib 130 mg/kg, 5 mice averaged
Description: as §1
In another experiment, on Day 0, 20 nude/nude mice were inoculated in the right hind limb with 5×10^6 LU6405 cells.

[1] = Study Day 23, p.o. daily for 21 days
[2] = Study Day 22, p.o. daily for 21 days
[3] = Study Day 24, p.o. daily for 21 days

SMILES | tumor growth inhibition (SW1573 cells) | Average Tumor Volume (SW1573 cells; Study Day 0, p.o. daily) | Average Tumor Volume (SW1573 cells; Study Day 6, p.o. daily) | Average Tumor Volume (SW1573 cells; Study Day 9, p.o. daily) | Average Tumor Volume (SW1573 cells; Study Day 14, p.o. daily) | Average Tumor Volume (SW1573 cells; Study Day 16, p.o. daily) | Average Tumor Volume (SW1573 cells; Study Day 18, p.o. daily) | Average Tumor Volume (SW1573 cells; Study Day 21, p.o. daily) | Average Tumor Volume (SW1573 cells; Study Day 23, p.o. daily) | Average Tumor Volume (SW1573 cells; Study Day 25, p.o. daily) | Average Tumor Volume (SW1573 cells; Study Day 28, p.o. daily) | tumor growth inhibition (H2122 cells) | Average Tumor Volume (H2122 cells; Study Day 0, p.o. daily) | Average Tumor Volume (H2122 cells; Study Day 2, p.o. daily) | Average Tumor Volume (H2122 cells; Study Day 4, p.o. daily) | Average Tumor Volume (H2122 cells; Study Day 7, p.o. daily) | Average Tumor Volume (H2122 cells; Study Day 9, p.o. daily) | Average Tumor Volume (H2122 cells; Study Day 11, p.o. daily) | Average Tumor Volume (H2122 cells; Study Day 14, p.o. daily) | Average Tumor Volume (H2122 cells; Study Day 16, p.o. daily) | other results
C=C(F)C(=O)N1CCN(c2nc(OC[C@@H]3CCCN3C)nc3c2CCN(c2cccc4cccc(Cl)c24)C3)C[C@@H]1CC#N [Compound 478] | 71% | 357 mm^3 | 404 mm^3 | 435 mm^3 | 523 mm^3 | 575 mm^3 | 607 mm^3 | 754 mm^3 | 758 mm^3 | 741 mm^3 | 785 mm^3 | 85% | 325 mm^3 | 340 mm^3 | 338 mm^3 | 381 mm^3 | 462 mm^3 | 480 mm^3 | 493 mm^3 | 541 mm^3 | Average Tumor Volume (H2122 cells; Study Day 18, p.o. daily): 537 mm^3; Average Tumor Volume (H2122 cells; Study Day 21, p.o. daily): 547 mm^3; Average Tumor Volume (H2122 cells; [1]): 547 mm^3; tumor growth inhibition (LU6405 cells; Day 24, single agent, Compound 478 100 mg/kg p.o. daily): 96%; Average Tumor Volume (LU6405 cells; Study Day 1, p.o. daily): 256.06 mm^3; Average Tumor Volume (LU6405 cells; Study Day 4, p.o. daily): 308.98 mm^3; Average Tumor Volume (LU6405 cells; Study Day 8, p.o. daily): 324.46 mm^3; Average Tumor Volume (LU6405 cells; Study Day 11, p.o. daily): 329.09 mm^3; Average Tumor Volume (LU6405 cells; Study Day 15, p.o. daily): 310.21 mm^3; Average Tumor Volume (LU6405 cells; Study Day 18, p.o. daily): 290.88 mm^3; Average Tumor Volume (LU6405 cells; [2]): 257.34 mm^3; Average Tumor Volume (LU6405 cells; [3]): 249.19 mm^3
CC(=O)c1c(C)c2cnc(Nc3ccc(N4CCNCC4)cn3)nc2n(C2CCCC2)c1=O [Palbociclib, 6-acetyl-8-cyclopentyl-5-methyl-2-((5-(piperazin-1-yl)pyridin-2-yl)amino)pyrido[2,3-d]pyrimidin-7(8H)-one] | 40% | 356 mm^3 | 484 mm^3 | 508 mm^3 | 748 mm^3 | 807 mm^3 | 706 mm^3 | 926 mm^3 | 1029 mm^3 | 1167 mm^3 | 1240 mm^3 | 65% | 326 mm^3 | 385 mm^3 | 493 mm^3 | 601 mm^3 | 646 mm^3 | 663 mm^3 | 748 mm^3 | 765 mm^3 | Average Tumor Volume (SW1573 cells; Study Day 3, p.o. daily): 444 mm^3; Average Tumor Volume (SW1573 cells; Study Day 11, p.o. daily): 515 mm^3; Average Tumor Volume (H2122 cells; Study Day 18, p.o. daily): 790 mm^3; Average Tumor Volume (H2122 cells; Study Day 21, p.o. daily): 836 mm^3; Average Tumor Volume (H2122 cells; [1]): 834 mm^3; Average Tumor Volume (LU6405 cells; Study Day 1, p.o. daily): 255.36 mm^3; Average Tumor Volume (LU6405 cells; Study Day 4, p.o. daily): 440.79 mm^3; Average Tumor Volume (LU6405 cells; Study Day 8, p.o. daily): 659.01 mm^3; Average Tumor Volume (LU6405 cells; Study Day 11, p.o. daily): 834.95 mm^3; Average Tumor Volume (LU6405 cells; Study Day 15, p.o. daily): 1165.80 mm^3; Average Tumor Volume (LU6405 cells; Study Day 18, p.o. daily): 1295.57 mm^3; Average Tumor Volume (LU6405 cells; [2]): 1363.40 mm^3; Average Tumor Volume (LU6405 cells; [3]): 1382.59 mm^3
